Earlier results, collected in patent US20240277615A1, “SELF-EMULSIFYING COMPOSITION, PRODUCTION METHODS AND USES THEREOF” (Universidade Da Beira Interior, priority 2021, published 2024).

Structure (SMILES)	plasma protein binding (plasma protein)	Log P
CCC(C)(C)C(=O)O[C@H]1C[C@@H](C)C=C2C=C[C@H](C)[C@H](CC[C@@H]3C[C@@H](O)CC(=O)O3)[C@H]21 [simvastatin]	94-98%	
CC(C)CCC[C@@H](C)[C@H]1CC[C@H]2[C@@H]3CC=C4C[C@@H](O)CC[C@]4(C)[C@H]3CC[C@]12C [cholesterol]		7
